Common to all, as to test: relative viability (nuclei count vs DMSO), 5 days (fraction); higher = more cells survive
Compound in the assay “ALW-II-49-7 + Pictilisib”: Cc1ccc(C(=O)Nc2cccc(C(F)(F)F)c2)cc1Nc1cncc(C(N)=O)c1 [ALW-II-49-7] + CS(=O)(=O)N1CCN(Cc2cc3nc(-c4cccc5[nH]ncc45)nc(N4CCOCC4)c3s2)CC1 [Pictilisib] (partner 1 µM)
Summed up:
(§1)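 Lung cancer cell lines were pin-tool dosed in 1536-well plates on the day after seeding, with either a lone drug or a fixed anchor-drug dose plus five library-drug doses (not always all listed) in √10 steps. Nuclei were counted on 4× images after 5 days. Relative viability is the ratio of treated-well to vehicle-well nuclei counts, with each value a median of duplicate plates.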

Compound in the assay “XMD13-2 + Crizotinib”: C1CC1C(=O)NC2=NNC3=C2C=CC(=C3)C4=CC(=CC=C4)C(=O)NC5CC5 [XMD13-2] + C[C@@H](Oc1cc(-c2cnn(C3CCNCC3)c2)cnc1N)c1c(Cl)ccc(F)c1Cl [Crizotinib] (partner 1 µM)
Summed up:
as §1

Compound in the assay “Dasatinib + Linsitinib”: Cc1nc(Nc2ncc(C(=O)Nc3c(C)cccc3Cl)s2)cc(N2CCN(CCO)CC2)n1 [Dasatinib] + C[C@]1(O)C[C@@H](c2nc(-c3ccc4ccc(-c5ccccc5)nc4c3)c3c(N)nccn32)C1 [Linsitinib] (partner 1 µM)
Summed up:
as §1

Compound in the assay “ALW-II-49-7 + AZD7762”: Cc1ccc(C(=O)Nc2cccc(C(F)(F)F)c2)cc1Nc1cncc(C(N)=O)c1 [ALW-II-49-7] + NC(=O)Nc1cc(-c2cccc(F)c2)sc1C(=O)N[C@H]1CCCNC1 [AZD7762] (partner 0.2 µM)
The essentials: as §1

Data on four cell lines can be found in the supplement of paper PMC10307832.

Turning to NCI-H23, the relative viability with ALW-II-49-7 + Pictilisib (first compound 0.08 µM) was 0.524; in the assay with ALW-II-49-7 + Pictilisib (first compound 0.253 µM) it was 0.448; in the assay with ALW-II-49-7 + Pictilisib (first compound 0.8 µM), 0.459; in the assay with ALW-II-49-7 + Pictilisib (first compound 2.53 µM), 0.526; with ALW-II-49-7 + Pictilisib (first compound 8 µM) it was 0.441; with XMD13-2 + Crizotinib (first compound 0.05 µM), 0.759. Further, the relative viability with XMD13-2 + Crizotinib (first compound 0.1581 µM) turned out to be 0.518; in the assay with XMD13-2 + Crizotinib (first compound 0.5 µM), 0.506; in the assay with XMD13-2 + Crizotinib (first compound 1.581 µM), 0.411; in the assay with XMD13-2 + Crizotinib (first compound 5 µM) it was 0.423; with Dasatinib + Linsitinib (first compound 0.005 µM), 0.483; in the assay with Dasatinib + Linsitinib (first compound 0.01581 µM), 0.38. For the same cell line, the relative viability with Dasatinib + Linsitinib (first compound 0.05 µM) was determined as 0.505; in the assay with Dasatinib + Linsitinib (first compound 0.1581 µM), 0.315; with Dasatinib + Linsitinib (first compound 0.5 µM), 0.213; with ALW-II-49-7 + AZD7762 (first compound 0.08 µM), 0.163; with ALW-II-49-7 + AZD7762 (first compound 0.253 µM) it was 0.263; in the assay with ALW-II-49-7 + AZD7762 (first compound 0.8 µM), 0.147. The relative viability was found to be 0.227 with ALW-II-49-7 + AZD7762 (first compound 2.53 µM) and 0.224 in the assay with ALW-II-49-7 + AZD7762 (first compound 8 µM).

NCI-H322M: the relative viability worked out at 0.449 in the assay with ALW-II-49-7 + Pictilisib (first compound 0.08 µM); 0.49 with ALW-II-49-7 + Pictilisib (first compound 0.253 µM); 0.479 in the assay with ALW-II-49-7 + Pictilisib (first compound 0.8 µM); 0.499 with ALW-II-49-7 + Pictilisib (first compound 2.53 µM); 0.556 with ALW-II-49-7 + Pictilisib (first compound 8 µM); 0.913 with XMD13-2 + Crizotinib (first compound 0.05 µM). Further, the relative viability came to 0.937 in the assay with XMD13-2 + Crizotinib (first compound 0.1581 µM); 1.09 with XMD13-2 + Crizotinib (first compound 0.5 µM); 0.814 with XMD13-2 + Crizotinib (first compound 1.581 µM); 1.01 with XMD13-2 + Crizotinib (first compound 5 µM); 1.04 with Dasatinib + Linsitinib (first compound 0.005 µM); 0.703 with Dasatinib + Linsitinib (first compound 0.01581 µM). Further, the relative viability with Dasatinib + Linsitinib (first compound 0.05 µM) was found to be 0.708; with Dasatinib + Linsitinib (first compound 0.1581 µM), 0.319; with Dasatinib + Linsitinib (first compound 0.5 µM), 0.196; with ALW-II-49-7 + AZD7762 (first compound 0.08 µM) it was 0.557; in the assay with ALW-II-49-7 + AZD7762 (first compound 0.253 µM) it was 0.584; with ALW-II-49-7 + AZD7762 (first compound 0.8 µM), 0.484. Moreover, the relative viability with ALW-II-49-7 + AZD7762 (first compound 2.53 µM) worked out at 0.698; with ALW-II-49-7 + AZD7762 (first compound 8 µM), 0.481.

For the cell line NCI-H358, the relative viability in the assay with ALW-II-49-7 + Pictilisib (first compound 0.08 µM) amounted to 0.361; in the assay with ALW-II-49-7 + Pictilisib (first compound 0.253 µM), 0.401; in the assay with ALW-II-49-7 + Pictilisib (first compound 0.8 µM), 0.363; with ALW-II-49-7 + Pictilisib (first compound 2.53 µM), 0.405; in the assay with ALW-II-49-7 + Pictilisib (first compound 8 µM), 0.456; in the assay with XMD13-2 + Crizotinib (first compound 0.05 µM), 0.77. Also, the relative viability with XMD13-2 + Crizotinib (first compound 0.1581 µM) came to 0.546; in the assay with XMD13-2 + Crizotinib (first compound 0.5 µM) it was 0.736; with XMD13-2 + Crizotinib (first compound 1.581 µM), 0.423; in the assay with XMD13-2 + Crizotinib (first compound 5 µM), 0.324; in the assay with Dasatinib + Linsitinib (first compound 0.005 µM) it was 0.607; in the assay with Dasatinib + Linsitinib (first compound 0.01581 µM) it was 0.484. Moreover, the relative viability was 0.387 with Dasatinib + Linsitinib (first compound 0.05 µM); 0.232 with Dasatinib + Linsitinib (first compound 0.1581 µM); 0.277 with Dasatinib + Linsitinib (first compound 0.5 µM); 0.51 in the assay with ALW-II-49-7 + AZD7762 (first compound 0.08 µM); 0.711 with ALW-II-49-7 + AZD7762 (first compound 0.253 µM); 0.405 in the assay with ALW-II-49-7 + AZD7762 (first compound 0.8 µM). Further, the relative viability in the assay with ALW-II-49-7 + AZD7762 (first compound 8 µM) is 0.524.

For the cell line NCI-H441, the relative viability with ALW-II-49-7 + Pictilisib (first compound 0.08 µM) is 0.439; with ALW-II-49-7 + Pictilisib (first compound 0.253 µM), 0.382; with ALW-II-49-7 + Pictilisib (first compound 0.8 µM) it was 0.49; in the assay with ALW-II-49-7 + Pictilisib (first compound 2.53 µM), 0.458; with ALW-II-49-7 + Pictilisib (first compound 8 µM), 0.378; with XMD13-2 + Crizotinib (first compound 0.05 µM) it was 0.842. Also, the relative viability in the assay with XMD13-2 + Crizotinib (first compound 0.1581 µM) was 0.715; in the assay with XMD13-2 + Crizotinib (first compound 0.5 µM) it was 0.875; with XMD13-2 + Crizotinib (first compound 1.581 µM), 0.656; in the assay with XMD13-2 + Crizotinib (first compound 5 µM) it was 0.578; in the assay with Dasatinib + Linsitinib (first compound 0.005 µM), 0.566; with Dasatinib + Linsitinib (first compound 0.01581 µM), 0.523. The relative viability turned out to be 0.491 with Dasatinib + Linsitinib (first compound 0.05 µM); 0.311 with Dasatinib + Linsitinib (first compound 0.1581 µM); 0.176 with Dasatinib + Linsitinib (first compound 0.5 µM); 1.18 in the assay with ALW-II-49-7 + AZD7762 (first compound 0.08 µM); 1.24 with ALW-II-49-7 + AZD7762 (first compound 0.253 µM); 1.07 in the assay with ALW-II-49-7 + AZD7762 (first compound 0.8 µM). For the same cell line, the relative viability with ALW-II-49-7 + AZD7762 (first compound 2.53 µM) stood at 0.817; in the assay with ALW-II-49-7 + AZD7762 (first compound 8 µM), 1.1.
